Reference: US20230183774A1, “COLORIMETRIC ASSAY FOR HIGH THROUGHPUT, FACILE AND RAPID ANTIMICROBIAL SUSCEPTIBILITIES TESTING” (Georgia Tech Research Corporation, priority 2021, published 2023)
In brackets after ≈: the same amount, converted by molar mass. Read-outs that look alike come from different tables or passages of the source.

Experiments:
Type in all cases: cell-based
[1] = system: P. aeruginosa strain PA46; assay: Standard broth microdilution (BMD); settings: 6×10^6 CFU/mL per well
Method: (§1) The antibiotics concentration and the initial concentration of bacterial cells in the wells shown in FIG. 8A are tabulated in Table 3.
The bacterial density in the standard BMD method was 6×10^6 CFU/mL per well before incubation, while the bacterial density in the colorimetric assay before the incubation is given in Table 3.

E. coli strain Mu890 [2] = assay: Rapid colorimetric AST in spiked human whole blood / blood culture medium (colour change, near IR absorbance); settings: 37° C.; for Susceptibility of Mu890 (colorimetric assay / near IR absorption): CLSI susceptible and resistant breakpoints, 2.55 × 10^4 CFU/mL in wells, 24 hours; for Susceptibility of Mu890 (colour change of blood): rapid colorimetric AST, CLSI breakpoint concentrations, 96-well plate, up to 24 hours incubation
From the text: as §1

E. coli strain Mu890 [3] = assay: Standard broth microdilution (BMD), turbidity; settings: validation of near IR experiment, 6×10^6 CFU/mL per well
Method: This color change results from the growth and presence of viable bacteria. When bacteria are resistant to the given antibiotic concentration, the color change is clearly observed. […] Results were validated by comparing with the gold standard BMD (FIGS. 4A and 4B). The gold standard BDM requires 16 to 24 hours incubation of plates after isolation of pure bacteria from positive blood cultures. In this case, the BMD was done by subculturing a pure colony of Mu890 in 4 mL CAMHB for 3 hours, followed by OD-600 adjustment such that the final concentration of bacteria is 6×10^6 CFU/mL per well. The plate was incubated at 37° C. for 18 hours and the image was acquired (FIG. 4B).

[4] = system: E. coli sample (positive blood culture); assay: ChroMIC automated colorimetric MIC assay directly from positive blood culture; settings: for MIC: Escherichia coli
Method: In order to prepare the contrast agent, sterile human whole blood (ZenBio, Research Triangle Park, N.C.) was stored at 4° C. and used within two weeks. […] For use as contrast, whole blood was diluted in sterile cation-adjusted Mueller Hinton broth (CAMHB; BD Biosciences, San Jose, Calif.) media (10% v/v).
Relating to an example colorimetric AST directly from positive blood culture —BacT/ALERT FA PLUS positive blood cultures were 500-fold diluted in CAMHB media and dispensed in the 96-well plate antibiotic panels. […] Final antibiotic concentrations ranged from approximately 0.03125 μg/mL to approximately 64 μg/mL along each row, with final dilution of blood cultures being 1000-fold. […] Wells H1, H9, and H10 are media-only negative controls, while wells H11 and H12 are no-antibiotic positive controls. […] ChroMIC ASTs were performed and compared (blinded) against both Vitek-2-determined MICs and vs. BMD. Each blood culture was also plated to retroactively determine inoculum size used.
Negative control wells with antibiotics and media only were allocated to ensure the sterility of media and antibiotics. Positive control wells were prepared to track bacterial growth without antibiotics and these controls were used in developing real-time automated analysis. After preparation of assays, the 96-well plates were covered with sterile sealing film (VWR International, Radnor, Pa.) and incubated at 37° C. for 18 hours with imaging as described below.
Example instruments used with the example colorimetric AST are disclosed herein. Four computer-controlled cameras (Raspberry Pi HQ) were connected to an ArduCam multicamera board in a Raspberry Pi 4B computer running the latest version of Raspian operating system. Within an incubator held at approximately 37° C., 96-well microtiter plates were held in 3D-printed holders, approximately 10 cm above the camera. A low distortion wide-angle lens was used to image microtiter plates from below, with LED illumination from above. Software collected images once every 15 minutes from each active camera over an 18-hour period. Images were analyzed both visually and by computer for red, green, and blue channel pixel intensities. Automated well detection was performed with OpenCV in python based on color value and the two most significant principal color components within each well were calculated and used to determine positive versus negative bacterial growth. […] SVM-derived probabilities were used to determine growth or no growth in each well. The left—most well in each row maintaining bright red color (no growth) was taken as the MIC.
ChroMIC assays were automated to acquire one image every 15 minutes over 18 hours. […] Wells can be automatically detected based on their color and the mean RGB color values can be taken from the average color of a 40×40 pixel area around each well centroid. Principal components using RGB values as input dimensions can be calculated for the wells in each image. […] Wells H1-H10 on each image and all wells (A1-H12) from the first hour (5 images—all before growth occurs) can be used as negative control wells. […] Since PCs are calculated for each image, all positive and negative controls are rotated into the current image PC space. A grid search can be performed to find the optimal SVM discriminant (FIG. 20B), and probabilities are used to assign growth (+) or no growth (−) for each well.
FIGS. 20-23 show aspects of automated real-time ChroMIC assay of an E. coli sample. An example of acquired images at different times (0 hours, 4 hours, 6 hours, 8 hours, 10 hours, 12 hours and 18 h) is shown in FIG. 19. […] This enables labels and MIC determinations for each antibiotic at each time point.

[5] = real-time Bayesian updated MIC, 4 hour, read-out: MIC (4 hour)
[6] = real-time Bayesian updated MIC, 6 hour, read-out: MIC (6 hour)
[7] = real-time Bayesian updated MIC, 8 hour, read-out: MIC (8 hour)
[8] = real-time Bayesian updated MIC, 10 hour, read-out: MIC (10 hour)
[9] = real-time Bayesian updated MIC, 12 hour, read-out: MIC (12 hour)
[10] = real-time Bayesian updated MIC, 16 hour, read-out: MIC (16 hour)

Row | Molecule | Susceptibility of Mu890 (colorimetric assay / near IR absorption) (E. coli strain Mu890 [2]) | Susceptibility of Mu890 (standard BMD method) (E. coli strain Mu890 [3]) | MIC [4, 5] | MIC [4, 6] | MIC [4, 7] | MIC [4, 8] | MIC [4, 9] | MIC [4, 10] | further results
1 | Cc1nnc(SCC2=C(C(=O)O)N3C(=O)[C@@H](NC(=O)Cn4cnnn4)[C@H]3SC2)s1 [cefazolin] |  |  |  |  |  |  |  |  | Susceptibility of PA46 (standard BMD method) [1]: resistant
2 | NC[C@H]1O[C@H](O[C@H]2[C@H](O)[C@@H](O[C@H]3O[C@H](CO)[C@@H](O)[C@H](N)[C@H]3O)[C@H](N)C[C@@H]2N)[C@H](N)C[C@@H]1O [Tobramycin, tobramycin] | susceptible | susceptible | 0.5 µg/mL (≈ 1.07 µM) | 0.5 µg/mL (≈ 1.07 µM) | 0.5 µg/mL (≈ 1.07 µM) | 0.5 µg/mL (≈ 1.07 µM) | 1 µg/mL (≈ 2.14 µM) | 1 µg/mL (≈ 2.14 µM) | Susceptibility of Mu890 (colour change of blood) (E. coli strain Mu890 [2]): sensitive
3 | CO/N=C(\C(=O)N[C@@H]1C(=O)N2C(C(=O)[O-])=C(C[N+]3(C)CCCC3)CS[C@H]12)c1csc(N)n1 [Cefepime, cefepime] |  |  |  |  |  |  |  |  | MIC ([4]; 4 h, read-out: MIC (4 hour)): ≤ 0.0312 µg/mL; MIC ([4]; 6 h, read-out: MIC (6 hour)): ≤ 0.0312 µg/mL; MIC ([4]; 8 h, read-out: MIC (8 hour)): ≤ 0.0312 µg/mL; MIC ([4]; 10 h, read-out: MIC (10 hour)): ≤ 0.0312 µg/mL; MIC ([4]; 12 h, read-out: MIC (12 hour)): ≤ 0.0312 µg/mL; MIC ([4]; 16 h, read-out: MIC (16 hour)): ≤ 0.0312 µg/mL
4 | C[C@@H](O)[C@H]1C(=O)N2C(C(=O)O)=C(S[C@@H]3CN[C@H](C(=O)N(C)C)C3)[C@H](C)[C@H]12 [Meropenem, meropenem] | susceptible | susceptible | 0.0625 µg/mL (≈ 0.163 µM) | ≤ 0.0312 µg/mL | ≤ 0.0312 µg/mL | ≤ 0.0312 µg/mL | ≤ 0.0312 µg/mL | ≤ 0.0312 µg/mL | 
5 | CC(C)(O/N=C(\C(=O)N[C@@H]1C(=O)N2C(C(=O)[O-])=C(C[n+]3ccccc3)CS[C@H]12)c1csc(N)n1)C(=O)O [Ceftazidime, ceftazidime] | susceptible | susceptible | 0.25 µg/mL (≈ 0.457 µM) | 0.25 µg/mL (≈ 0.457 µM) | 0.125 µg/mL (≈ 0.229 µM) | 0.125 µg/mL (≈ 0.229 µM) | 0.125 µg/mL (≈ 0.229 µM) | 0.125 µg/mL (≈ 0.229 µM) | Susceptibility of Mu890 (colour change of blood) (E. coli strain Mu890 [2]): sensitive
6 | gentamicin |  |  |  |  |  |  |  |  | MIC (4 hour) ([4]; real-time Bayesian updated MIC, 4 hour): 0.5 µg/mL; MIC (6 hour) ([4]; real-time Bayesian updated MIC, 6 hour): 0.5 µg/mL; MIC (8 hour) ([4]; real-time Bayesian updated MIC, 8 hour): 0.5 µg/mL; MIC (10 hour) ([4]; real-time Bayesian updated MIC, 10 hour): 1 µg/mL; MIC (12 hour) ([4]; real-time Bayesian updated MIC, 12 hour): 1 µg/mL; MIC (16 hour) ([4]; real-time Bayesian updated MIC, 16 hour): 1 µg/mL
7 | C[C@H]1COc2c(N3CCN(C)CC3)c(F)cc3c(=O)c(C(=O)O)cn1c23 [Levofloxacin, levofloxacin] |  |  | ≤ 0.0312 µg/mL | ≤ 0.0312 µg/mL | ≤ 0.0312 µg/mL | ≤ 0.0312 µg/mL | ≤ 0.0312 µg/mL | ≤ 0.0312 µg/mL | 
8 | NCC[C@H](O)C(=O)N[C@@H]1C[C@H](N)[C@@H](O[C@H]2O[C@H](CN)[C@@H](O)[C@H](O)[C@H]2O)[C@H](O)[C@H]1O[C@H]1O[C@H](CO)[C@@H](O)[C@H](N)[C@H]1O [Amikacin, amikacin] |  |  | 1 µg/mL (≈ 1.71 µM) | 1 µg/mL (≈ 1.71 µM) | 1 µg/mL (≈ 1.71 µM) | 2 µg/mL (≈ 3.42 µM) | 2 µg/mL (≈ 3.42 µM) | 2 µg/mL (≈ 3.42 µM) | 
